Assay results from ChEMBL document CHEMBL2401618 (Eur J Med Chem, 2013).
pIC50: −log10 of the molar value.

Key:
[1] = test system: Trypanosoma brucei brucei; assay: Antitrypanosomal activity against bloodstream stage of Trypanosoma brucei brucei 93 assessed as parasite growth inhibition at 1 ug/ml after 72 hrs by resazurin reduction assay relative to control; format: functional; details: Trypanosoma brucei, 93, 72 h; read-out: GI
[2] = test system: Vero; assay: Cytotoxicity against african green monkey Vero cells assessed as growth inhibition after 72 hrs by MTS assay; format: cell-based; details: Chlorocebus sabaeus
[3] = Safety index, ratio of IC50 for african green monkey Vero cells to IC50 for promastigote stage of Leishmania donovani LV9; format: toxicity, cell-based; details: read-out: Ratio IC50
[4] = test system: Plasmodium falciparum; assay: Antiplasmodial activity against chloroquine-resistant Plasmodium falciparum FcB1/Columbia infected in human erythrocytes assessed as parasite growth inhibition at 1 ug/ml after 24 hrs by [3H]-hypoxanthine incorporation assay relative to control; format: functional; details: read-out: GI
[5] = test system: Leishmania donovani; assay: Leishmanicidal activity against promastigote stage of Leishmania donovani LV9 assessed as cell viability by MTT assay; format: functional, organism-based
[6] = test system: Plasmodium falciparum; assay: Antiplasmodial activity against chloroquine-resistant Plasmodium falciparum FcB1/Columbia infected in human erythrocytes assessed as parasite growth inhibition at 10 ug/ml after 24 hrs by [3H]-hypoxanthine incorporation assay relative to control; format: functional; details: read-out: GI
[7] = test system: Trypanosoma brucei brucei; assay: Antitrypanosomal activity against bloodstream stage of Trypanosoma brucei brucei 93 assessed as parasite growth inhibition at 10 ug/ml after 72 hrs by resazurin reduction assay relative to control; format: functional; details: Trypanosoma brucei, 93, 72 h; read-out: GI
[8] = test system: Trypanosoma brucei brucei; assay: Antitrypanosomal activity against bloodstream stage of Trypanosoma brucei brucei 93 assessed as parasite growth inhibition at 50 ug/ml after 72 hrs by resazurin reduction assay relative to control; format: functional; details: Trypanosoma brucei, 93, 72 h; read-out: GI
[9] = test system: Plasmodium falciparum; assay: Antiplasmodial activity against chloroquine-resistant Plasmodium falciparum FcB1/Columbia infected in human erythrocytes assessed as parasite growth inhibition at 50 ug/ml after 24 hrs by [3H]-hypoxanthine incorporation assay relative to control; format: functional; details: read-out: GI
[10] = test system: Trypanosoma brucei brucei; assay: Antitrypanosomal activity against bloodstream stage of Trypanosoma brucei brucei 93 assessed as parasite growth inhibition after 72 hrs by resazurin reduction assay; format: functional, organism-based; details: Trypanosoma brucei, 93, 72 h
[11] = Safety index, ratio of IC50 for african green monkey Vero cells to IC50 for bloodstream stage of Trypanosoma brucei brucei 93; format: toxicity, cell-based; details: read-out: Ratio IC50
[12] = test system: Plasmodium falciparum; assay: Antiplasmodial activity against chloroquine-resistant Plasmodium falciparum FcB1/Columbia infected in human erythrocytes assessed as parasite growth inhibition after 24 hrs by [3H]-hypoxanthine incorporation assay; format: functional, organism-based
[13] = Safety index, ratio of IC50 for african green monkey Vero cells to IC50 for chloroquine-resistant Plasmodium falciparum FcB1/Columbia infected in human erythrocytes; format: toxicity, cell-based; details: read-out: Ratio IC50

SMILES	inhibition of growth at 1 µg/mL [1]	pIC50 [2]	selectivity ratio [3]	inhibition of growth at 1 µg/mL [4]	pIC50 [5]	inhibition of growth at 10 µg/mL [6]	inhibition of growth at 10 µg/mL [7]	inhibition of growth at 50 µg/mL [8]	inhibition of growth at 50 µg/mL [9]	pIC50 [10]	selectivity ratio [11]	pIC50 [12]	selectivity ratio [13]
COc1ccc(C(=O)C2=C(O)[C@]3(CC=C(C)C)C[C@H](CC=C(C)C)[C@@](C)(CCC=C(C)C)[C@](CC=C(C)C)(C2=O)C3=O)cc1OC	17.7%	4.66	1.8	13.8%	4.91	59.2%	96.3%	94%	99.3%				
CC(C)=CCC[C@]1(C)[C@@H](CC=C(C)C)C[C@]2(CC=C(C)C)C(=O)[C@@]1(CC=C(C)C)C(=O)C(C(=O)c1ccc(OCc3ccccc3)c(OCc3ccccc3)c1)=C2O	32.8%	4.49	< 0.3	7.07%	< 4.00	38.6%	94.8%	94.9%	99.1%	5.49	10.1		
CCCC(=O)Oc1ccc(C(=O)C2=C(O)[C@]3(CC=C(C)C)C[C@H](CC=C(C)C)[C@@](C)(CCC=C(C)C)[C@](CC=C(C)C)(C2=O)C3=O)cc1OC(=O)CCC	35%	5.10	0.6	-0.82%	4.87	96.5%	96.2%	94.9%	99.7%	5.58	3	5.30	1.6
CCN(CC)CCCC(C)Nc1ccnc2cc(Cl)ccc12 (configuration not stated) [CHLOROQUINE]		4.68											
CC(C)=CCC[C@]1(C)[C@@H](CC=C(C)C)C[C@]2(CC=C(C)C)C(=O)[C@@]1(CC=C(C)C)C(=O)C(C(=O)c1ccc(OCCC3OCCO3)c(O)c1)=C2O [14-O-2-ETHYL-1,3-DIOXOLANE-GUTTIFERONE A]	8.18%			15.3%	4.65	49.1%	96.4%	94.9%	99.6%				
C=CCOc1ccc(C(=O)C2=C(O)[C@]3(CC=C(C)C)C[C@H](CC=C(C)C)[C@@](C)(CCC=C(C)C)[C@](CC=C(C)C)(C2=O)C3=O)cc1O [14-O-ALLYL-GUTTIFERONE A]	20.3%			0.83%	4.80	11%	95.1%	92.6%	99.5%				
CCOc1ccc(C(=O)C2=C(O)[C@]3(CC=C(C)C)C[C@H](CC=C(C)C)[C@@](C)(CCC=C(C)C)[C@](CC=C(C)C)(C2=O)C3=O)cc1O [14-O-ETHYL-GUTTIFERONE A]	15.8%			14.9%	4.79	28.2%	94.7%	93%	99.7%				
COc1ccc([N+](=O)[O-])cc1COc1ccc(C(=O)C2=C(O)[C@]3(CC=C(C)C)C[C@H](CC=C(C)C)[C@@](C)(CCC=C(C)C)[C@](CC=C(C)C)(C2=O)C3=O)cc1OCc1cc([N+](=O)[O-])ccc1OC	9.11%			13.7%	< 4.00	20.1%	51.9%	93%	79.1%				
CC(=O)Oc1cc(C(=O)C2=C(O)[C@]3(CC=C(C)C)C[C@H](CC=C(C)C)[C@@](C)(CCC=C(C)C)[C@](CC=C(C)C)(C2=O)C3=O)ccc1O	47%	5.39	0.8	9%	5.30	96.7%	97.3%	95.5%	99.1%	5.75	2.3	5.36	0.9
CC(C)=CCC[C@]1(C)[C@@H](CC=C(C)C)C[C@]2(CC=C(C)C)C(=O)[C@@]1(CC=C(C)C)C(=O)C(C(=O)c1ccc(OCc3ccccc3)c(O)c1)=C2O [14-O-BENZYL-GUTTIFERONE A]	23.6%			16.1%	4.65	49%	96%	95%	99.1%				
CC(C)=CCC[C@]1(C)[C@@H](CC=C(C)C)C[C@]2(CC=C(C)C)C(=O)[C@@]1(CC=C(C)C)C(=O)C(C(=O)c1ccc(OC(=O)C=C(C)C)c(OC(=O)C=C(C)C)c1)=C2O	10.5%			3.6%	4.54	31.6%	92%	96.1%	94.9%				
CC(C)=CCC[C@]1(C)[C@@H](CC=C(C)C)C[C@]2(CC=C(C)C)C(=O)[C@@]1(CC=C(C)C)C(=O)C(C(=O)c1ccc(OC(C)C)c(O)c1)=C2O [14-O-ISOPROPYL-GUTTIFERONE A]	15.4%			14.7%	4.74	25.6%	95.7%	94.4%	99.8%				
C[C@@H]1[C@H](O)[C@@H](C)/C=C/C=C/C=C/C=C/C=C/C=C/C=C/[C@H](O[C@@H]2O[C@H](C)[C@@H](O)[C@H](N)[C@@H]2O)C[C@@H]2O[C@](O)(C[C@@H](O)C[C@@H](O)[C@H](O)CC[C@@H](O)C[C@@H](O)CC(=O)O[C@H]1C)C[C@H](O)[C@H]2C(=O)O [AMPHOTERICIN B]		6.48	11		7.52								
CC(=O)Oc1ccc(C(=O)C2=C(O)[C@]3(CC=C(C)C)C[C@H](CC=C(C)C)[C@@](C)(CCC=C(C)C)[C@](CC=C(C)C)(C2=O)C3=O)cc1OC(C)=O	38.5%	5.42		14.9%		97.5%	97.2%	93.3%	99.7%	5.53	1.3	5.44	1.1
COc1ccc([N+](=O)[O-])cc1COc1ccc(C(=O)C2=C(O)[C@]3(CC=C(C)C)C[C@H](CC=C(C)C)[C@@](C)(CCC=C(C)C)[C@](CC=C(C)C)(C2=O)C3=O)cc1O [14-O-2-METHOXY-5-NITROBENZYL-GUTTIFERONE A]	8.4%			6.06%	< 4.00	14.6%	88.9%	96.1%	97.4%				
C#CCOc1ccc(C(=O)C2=C(O)[C@]3(CC=C(C)C)C[C@H](CC=C(C)C)[C@@](C)(CCC=C(C)C)[C@](CC=C(C)C)(C2=O)C3=O)cc1O [14-O-PROPARGYL-GUTTIFERONE A]	20.9%			6.95%	4.74	49.4%	96%	92.1%	99.5%				
CCCOc1ccc(C(=O)C2=C(O)[C@]3(CC=C(C)C)C[C@H](CC=C(C)C)[C@@](C)(CCC=C(C)C)[C@](CC=C(C)C)(C2=O)C3=O)cc1O [14-O-PROPYL-GUTTIFERONE A]	5.33%			2.36%	4.68	13.4%	94.6%	94.2%	99.6%				
COCOc1ccc(C(=O)C2=C(O)[C@]3(CC=C(C)C)C[C@H](CC=C(C)C)[C@@](C)(CCC=C(C)C)[C@](CC=C(C)C)(C2=O)C3=O)cc1OCOC	6.82%			7.94%	4.63	20.9%	95.5%	93.2%	99.5%				
COCOc1ccc(C(=O)C2=C(O)[C@]3(CC=C(C)C)C[C@H](CC=C(C)C)[C@@](C)(CCC=C(C)C)[C@](CC=C(C)C)(C2=O)C3=O)cc1O [14-O-METHOXYMETHYL-GUTTIFERONE A]	13.2%	4.89	0.9	10.8%	4.83	74.8%	96.3%	92.5%	99.6%			5.32	2.7
CCCCCCCCCCCCCCCCOP(=O)([O-])OCC[N+](C)(C)C [MILTEFOSINE]		4.19	4		4.79								
